{"source": "patent US8658383B2", "about": "“Sweet taste receptor-expressing construct, cell body expressing the same, and utilization thereof” (T. Hasegawa Co., Ltd., priority 2009, dated 2014)", "key": {"[1]": {"biological_target": "T1, human sweet taste receptor (hT1R2+hT1R3) (Homo sapiens, UniProt Q7RTX0+Q8TE23)", "T1 sequence (Q8TE23 20-839)": "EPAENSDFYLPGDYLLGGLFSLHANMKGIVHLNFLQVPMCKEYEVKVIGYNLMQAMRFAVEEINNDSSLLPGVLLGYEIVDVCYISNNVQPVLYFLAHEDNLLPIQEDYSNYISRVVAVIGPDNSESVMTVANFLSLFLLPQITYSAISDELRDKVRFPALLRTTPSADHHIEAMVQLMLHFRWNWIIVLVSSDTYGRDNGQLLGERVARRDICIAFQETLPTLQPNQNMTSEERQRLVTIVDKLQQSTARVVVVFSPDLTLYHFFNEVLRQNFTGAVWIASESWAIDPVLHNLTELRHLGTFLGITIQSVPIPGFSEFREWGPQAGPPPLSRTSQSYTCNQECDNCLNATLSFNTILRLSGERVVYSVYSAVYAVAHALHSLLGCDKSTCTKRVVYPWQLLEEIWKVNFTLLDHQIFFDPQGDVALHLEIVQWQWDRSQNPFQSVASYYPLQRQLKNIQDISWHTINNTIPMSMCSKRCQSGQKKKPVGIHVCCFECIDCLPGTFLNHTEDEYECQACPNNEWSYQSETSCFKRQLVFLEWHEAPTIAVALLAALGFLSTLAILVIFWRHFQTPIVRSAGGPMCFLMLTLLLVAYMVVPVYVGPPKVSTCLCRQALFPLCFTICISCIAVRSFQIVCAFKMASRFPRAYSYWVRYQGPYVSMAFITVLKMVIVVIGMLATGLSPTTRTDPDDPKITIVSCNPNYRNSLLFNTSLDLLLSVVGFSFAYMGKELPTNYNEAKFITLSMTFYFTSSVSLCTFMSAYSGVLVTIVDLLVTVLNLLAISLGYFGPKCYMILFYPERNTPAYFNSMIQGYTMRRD", "T1 sequence (Q7RTX0 21-852)": "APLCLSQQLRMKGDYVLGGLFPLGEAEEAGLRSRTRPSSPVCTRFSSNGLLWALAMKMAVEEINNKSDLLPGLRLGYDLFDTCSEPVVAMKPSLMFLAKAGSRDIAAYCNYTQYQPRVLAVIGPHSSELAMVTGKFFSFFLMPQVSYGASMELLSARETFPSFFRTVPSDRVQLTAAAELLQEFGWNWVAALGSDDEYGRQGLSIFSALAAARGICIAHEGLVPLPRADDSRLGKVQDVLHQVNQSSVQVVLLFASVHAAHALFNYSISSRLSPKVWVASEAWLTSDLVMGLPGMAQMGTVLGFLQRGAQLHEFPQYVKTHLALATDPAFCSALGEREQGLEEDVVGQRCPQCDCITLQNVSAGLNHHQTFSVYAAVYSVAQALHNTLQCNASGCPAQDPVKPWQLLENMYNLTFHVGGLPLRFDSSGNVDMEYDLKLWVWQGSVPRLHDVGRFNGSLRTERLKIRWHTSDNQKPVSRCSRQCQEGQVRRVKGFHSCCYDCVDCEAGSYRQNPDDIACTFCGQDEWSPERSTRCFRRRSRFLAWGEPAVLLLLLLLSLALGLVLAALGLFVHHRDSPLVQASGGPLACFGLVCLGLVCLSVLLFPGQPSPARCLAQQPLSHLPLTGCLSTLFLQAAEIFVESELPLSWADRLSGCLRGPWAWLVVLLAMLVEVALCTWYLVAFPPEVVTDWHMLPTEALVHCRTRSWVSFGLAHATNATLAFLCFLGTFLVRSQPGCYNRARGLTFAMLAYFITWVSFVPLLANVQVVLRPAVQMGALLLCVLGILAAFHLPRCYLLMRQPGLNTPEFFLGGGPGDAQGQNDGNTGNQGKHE", "test": "Automated fluorescent calcium imaging (Fluo-4 AM, FlexStation 3) of cultured cell strain (A)", "type": "cell-based", "parameters": "The sweet taste receptor subunits T1R2 and T1R3 include an entire part of each subunit", "procedure": "Automated fluorescent imaging using FlexStation 3 (Molecular Devices) can be performed, for example, according to the following procedure.\nFirst, cells are suspended in a low glucose ([…]) DMEM medium from which hygromycin B has been removed, and each 70 to 80 thousands of cells are seeded on each well of a 96-well plate (Corning, CellBIND Surface).\nThen, after cultured at 37° C. for 24 hours, a medium is removed and replaced with a suitable amount of a HEPES (2-[4-(2-hydroxyethyl)-1-piperazinyl]ethanesulfonic acid) buffer, and a HEPES buffer containing a fluorescent calcium indicator (Fluo-4 AM attached to Molecular Devices, FLIPR Ca 4 Assay Kit) is further added. In order to facilitate transfer into cells, a fat-soluble acetoxymethyl group has been introduced into the fluorescent indicator Fluo-4 (excitation wavelength: 495 nm, fluorescent wavelength: 518 nm), and when it is added to a medium, it is easily taken into cells, and is hydrolyzed with an esterase in cells. Hydrolyzed Fluo-4 becomes difficult to be permeated through a cell membrane, and is diffused into cells to form a complex with calcium, emitting intense fluorescence. In a 96-well plate for fluorescent observation, there are a plastic bottom and a film bottom. Since a plate of the plastic bottom is satisfactory in adherability and growth of cells, it is used at a simultaneous assay using a multiplate reader for observing an entire well. However, since a plate of this plastic bottom is bad in transmission property of a UV wavelength, and inhibits transmission of excited light of Fura-2, Fluo-4 is used.\nThen, after incubated at 27 to 37° C. for 30 to 60 minutes, by adding thereto a sweet taste substance at a particular concentration or a solution of a sweet taste substance and a substance to be tested, taste stimulation is performed at 27 to 37° C.\nA physiological response of the cultured cell strain (A) to sucrose stimulation was analyzed by automated fluorescent imaging.\nThe cultured cell strain (A) prepared in Example 4 was trypsinized, and suspended in the DMEM medium, a cell density was measured, and each about 80 thousand cells were seeded on each well of a 96-well plate (Corning, CellBIND Surface).\nAfter cultured at 37° C. for 24 hours, the medium was removed and replaced with 50 μl of a HEPES buffer, and 50 μl of a HEPES buffer containing a fluorescent calcium indicator (Fluo-4 AM attached to Molecular Devices, FLIPR Ca 4 Assay Kit) was further added. Then, this was incubated at 27° C. for 45 minutes to prepare cells to be subjected to automated fluorescent imaging.\nThen, to the cells was added a HEPES buffer containing sucrose, so that a final concentration of sucrose became a concentration described in Table 1, and sucrose stimulation was performed at 27° C.\nThe vertical axis of FIG. 15 is a maximum of change (AF) in a fluorescent intensity between immediately after stimulation and 100 seconds after stimulation, that is, a response intensity of cells, and the horizontal axis indicates a sucrose concentration (mM) expressed by logarithm.\nA physiological response of the cultured cell strain (A) to D-phenylalanine stimulation was analyzed by automated fluorescent imaging."}, "[2]": {"biological_target": "T1, human sweet taste receptor (hT1R2+hT1R3)", "test": "Automated fluorescent calcium imaging (Fluo-4 AM, FlexStation 3) of cultured cell strain (A)", "type": "cell-based", "parameters": "The sweet taste receptor subunits T1R2 and T1R3 include an entire part of each subunit", "remark": "listed apart in the source"}, "[3]": {"biological_target": "T1, human sweet taste receptor (hT1R2+hT1R3)", "test": "Fluorescent microscope calcium imaging (Fura-2 AM) of cultured cell strains (A) to (C)", "conditions": "cultured cell strain (A); Sucrose in a range of 20 mM to 1 M; FIG. 13", "quoted_text": "Fluorescent calcium imaging using a fluorescent microscope can be performed according to the following procedure.\nFirst, cells are suspended in a low glucose (1,000 mg/ml) DMEM medium, from which hygromycin B has been removed, and each 40 to 80 thousands cells are seeded on each well of a 96-well plate (Greiner, Lumox).\nThen, after cultured at 37° C. for 24 to 48 hours, a medium is removed and is replaced with a suitable amount of a HEPES buffer, and a HEPES buffer containing a fluorescent calcium indicator (Fura-2 AM) is further added.\nAfter incubated at 27 to 37° C. for 30 to 60 minutes, an extracellular fluorescent indicator is removed, and this is finally replaced with a suitable amount of a HEPES buffer, and is allowed to stand at room temperature for 10 to 20 minutes. By adding thereto a sweet taste substance at a particular concentration or a solution of a sweet taste substance and a substance to be tested, taste stimulation is performed at room temperature. In the fluorescent indicator Fura-2 (excitation wavelength: 340 nm/380 nm, fluorescent wavelength: 510 nm), a fluorescent intensity of excitation at 340 nm is increased, and a fluorescent intensity of excitation at 380 nm is reduced, when a calcium ion concentration is increased.\nCells loaded with Fura-2 AM were excited at 340 nm and 380 nm, and a fluorescent image observed at 510 nm was taken using a fluorescent microscope and a CCD camera. While the image was taken, Aspartame at a final concentration of 10 mM was administered to cells and, thereafter, the image was continuously taken. From the field of the taken image, 100 cells were randomly selected, and the response cell number was counted.\nCells loaded with Fura-2 AM were excited at 340 nm and 380 nm, and a fluorescent image observed at 510 nm was taken using a fluorescent microscope and a CCD camera. While the image was taken, Aspartame at each final concentration of 0.1 mM, 0.5 mM, 1 mM, 2 mM and 5 mM was administered to cells and then the image was continuously taken.\nCells loaded with Fura-2 AM were excited at 340 nm and 380 nm, and a fluorescent image observed at 510 nm was taken by using a fluorescent microscope and a CCD camera. While the image was taken, Sucrose at each final concentration of 20 mM, 50 mM, 100 mM, 200 mM, 500 mM and 1 M was administered to cells and then the image was continuously taken.\nCells loaded with Fura-2 AM were excited at 340 nm and 380 nm, and a fluorescent image observed at 510 nm was taken by using a fluorescent microscope and a CCD camera. While the image was taken, sucrose at final concentration of 500 mM was administered to cells and then the image was continuously taken."}}}
{"smiles": "N[C@H](Cc1ccccc1)C(=O)O", "note": "[D-phenylalanine]", "values": [{"measurement": "Change amount of fluorescent intensity (ΔF)", "setting": "[1]; D-phenylalanine 1.5 mM, Average ± S.E., n = 2", "value": "4.0 ± 0.8"}, {"measurement": "Change amount of fluorescent intensity (ΔF)", "setting": "[1]; D-phenylalanine 2.2 mM, Average ± S.E., n = 2", "value": "4.8 ± 0.6"}, {"measurement": "Change amount of fluorescent intensity (ΔF)", "setting": "[1]; D-phenylalanine 3.3 mM, Average ± S.E., n = 2", "value": "4.5 ± 0.6"}, {"measurement": "Change amount of fluorescent intensity (ΔF)", "setting": "[1]; D-phenylalanine 4.9 mM, Average ± S.E., n = 2", "value": "5.4 ± 0.3"}, {"measurement": "Change amount of fluorescent intensity (ΔF)", "setting": "[1]; D-phenylalanine 7.4 mM, Average ± S.E., n = 2", "value": "8.1 ± 0.7"}, {"measurement": "Change amount of fluorescent intensity (ΔF)", "setting": "[1]; D-phenylalanine 11.1 mM, Average ± S.E., n = 2", "value": "12.1 ± 0.2"}, {"measurement": "Change amount of fluorescent intensity (ΔF)", "setting": "[1]; D-phenylalanine 16.7 mM, Average ± S.E., n = 2", "value": "18.2 ± 0.9"}, {"measurement": "Change amount of fluorescent intensity (ΔF)", "setting": "[1]; D-phenylalanine 25 mM, Average ± S.E., n = 2", "value": "25.2 ± 1.2"}]}
{"smiles": "COc1ccc(CCC(=O)c2c(O)cc(O[C@@H]3O[C@H](CO)[C@@H](O)[C@H](O)[C@H]3O[C@@H]3O[C@@H](C)[C@H](O)[C@@H](O)[C@H]3O)cc2O)cc1O", "note": "[NHDC, neohesperidin dihydrochalcone]", "values": [{"measurement": "Change amount of fluorescent intensity (ΔF)", "setting": "[1]; NHDC 0.003 mM", "value": 5.8}, {"measurement": "Change amount of fluorescent intensity (ΔF)", "setting": "[1]; NHDC 0.01 mM", "value": 11.2}, {"measurement": "Change amount of fluorescent intensity (ΔF)", "setting": "[2]; NHDC 0.03 mM", "value": 9.6}, {"measurement": "Change amount of fluorescent intensity (ΔF)", "setting": "[2]; NHDC 0.1 mM", "value": 20.9}, {"measurement": "Change amount of fluorescent intensity (ΔF)", "setting": "[2]; NHDC 0.3 mM", "value": 26.7}, {"measurement": "Change amount of fluorescent intensity (ΔF)", "setting": "[2]; NHDC 1 mM", "value": 41.8}, {"measurement": "Change amount of fluorescent intensity (ΔF)", "setting": "[2]; NHDC 3 mM", "value": 66.8}, {"measurement": "Change amount of fluorescent intensity (ΔF)", "setting": "[2]; NHDC 10 mM", "value": 78.6}]}
{"smiles": "OC[C@H]1O[C@@](CO)(O[C@H]2O[C@H](CO)[C@@H](O)[C@H](O)[C@H]2O)[C@@H](O)[C@@H]1O", "note": "[Sucrose, sucrose]", "values": [{"measurement": "Change amount of fluorescent intensity (ΔF)", "setting": "[1]; sucrose 3.1 mM, Average ± S.E., n = 6", "value": "10.8 ± 2.0"}, {"measurement": "Change amount of fluorescent intensity (ΔF)", "setting": "[1]; sucrose 6.3 mM, Average ± S.E., n = 6", "value": "13.8 ± 2.9"}, {"measurement": "Change amount of fluorescent intensity (ΔF)", "setting": "[1]; sucrose 12.5 mM, Average ± S.E., n = 6", "value": "14.9 ± 2.7"}, {"measurement": "Change amount of fluorescent intensity (ΔF)", "setting": "[1]; sucrose 25 mM, Average ± S.E., n = 6", "value": "17.0 ± 2.6"}, {"measurement": "Change amount of fluorescent intensity (ΔF)", "setting": "[1]; sucrose 50 mM, Average ± S.E., n = 6", "value": "29.2 ± 2.3"}, {"measurement": "Change amount of fluorescent intensity (ΔF)", "setting": "[1]; sucrose 100 mM, Average ± S.E., n = 6", "value": "40.4 ± 2.5"}, {"measurement": "Change amount of fluorescent intensity (ΔF)", "setting": "[1]; sucrose 200 mM, Average ± S.E., n = 6", "value": "35.4 ± 3.2"}, {"measurement": "sweet taste response (fluorescent images)", "setting": "[3]", "value": "concentration-dependent sweet taste response was observed"}]}
{"smiles": "O=C1NS(=O)(=O)c2ccccc21", "note": "[saccharin]", "values": [{"measurement": "Change amount of fluorescent intensity (ΔF)", "setting": "[1]; saccharin 0.04 mM, Average ± S.E., n = 2", "value": "4.0 ± 0.8"}, {"measurement": "Change amount of fluorescent intensity (ΔF)", "setting": "[1]; saccharin 0.08 mM, Average ± S.E., n = 2", "value": "8.0 ± 0.6"}, {"measurement": "Change amount of fluorescent intensity (ΔF)", "setting": "[1]; saccharin 0.16 mM, Average ± S.E., n = 2", "value": "11.1 ± 1.3"}, {"measurement": "Change amount of fluorescent intensity (ΔF)", "setting": "[1]; saccharin 0.31 mM, Average ± S.E., n = 2", "value": "18.7 ± 2.4"}, {"measurement": "Change amount of fluorescent intensity (ΔF)", "setting": "[1]; saccharin 0.63 mM, Average ± S.E., n = 2", "value": "26.1 ± 4.0"}, {"measurement": "Change amount of fluorescent intensity (ΔF)", "setting": "[1]; saccharin 1.25 mM, Average ± S.E., n = 2", "value": "25.7 ± 1.1"}, {"measurement": "Change amount of fluorescent intensity (ΔF)", "setting": "[1]; saccharin 2.50 mM, Average ± S.E., n = 2", "value": "25.6 ± 0.2"}, {"measurement": "Change amount of fluorescent intensity (ΔF)", "setting": "[1]; saccharin 5 mM, Average ± S.E., n = 2", "value": "21.8 ± 1.2"}]}
